Experimental data reported in patent US20220257557A1, “PHARMACEUTICAL COMPOSITION FOR PREVENTING OR TREATING NEUROLOGICAL DISEASES” (GLACEUM INC., priority 2019, published 2022).

Columns and labels:
BV2 cells [1] = experiment: NO and PGE2 production after LPS; type: cell-based; details: 3 h pretreatment (Table 3 amounts), LPS 1 μg/ml 24 h
How it was run: (§1)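 RAW264.7 or BV2 cells (5×10^5 cells/well) in DMEM with 10% FBS were pretreated with compound, then stimulated with 1 μg/ml LPS for 24 h. iNOS and COX-2 expression by Western blot; NO and PGE2 production measured. Compound toxicity checked by MTT.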

RAW264.7 cells [2] = experiment: NO and PGE2 production after LPS; type: cell-based; details: 3 h pretreatment (Table 3 amounts), LPS 1 μg/ml 24 h
How it was run: as §1

BV2 cells [3] = experiment: IL-1β, IL-6 and TNF-α mRNA expression after LPS (RT-PCR); type: cell-based; details: 3 h pretreatment (Table 3 amounts), LPS 1 μg/ml 6 h
How it was run: (§2)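 Cells pretreated with test compounds (cytotoxicity checked by MTT), then stimulated with 1 μg/ml LPS for 6 h. IL-1β, IL-6 and TNF-α mRNA levels measured by RT-PCR.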

RAW264.7 cells [4] = experiment: as above; type: cell-based; details: 3 h pretreatment (Table 3 amounts), LPS 1 μg/ml 6 h
How it was run: as §2

BV2 cells [5] = experiment: Transcription of NF-κB protein (p65, p50) into nucleus after LPS (Western blot); type: cell-based; details: 3 h pretreatment (Table 3 amounts), LPS 1 μg/ml 1 h
How it was run: (§3)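 Cells (5×10^5/well) cultured in DMEM with 10% FBS at 37° C, 5% CO2, pretreated with compound, then stimulated with 1 μg/ml LPS for 1 hour. Nuclear levels of p65 and p50 measured by Western blot.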

RAW264.7 cells [6] = experiment: as above; type: cell-based; details: 3 h pretreatment (Table 3 amounts), LPS 1 μg/ml 1 h
How it was run: as §3

BV2 cells [7] = experiment: iNOS and COX-2 expression after LPS (Western blot); type: cell-based; details: 3 h pretreatment (Table 3 amounts), LPS 1 μg/ml 24 h
How it was run: as §1

RAW264.7 cells [8] = experiment: iNOS and COX-2 expression after LPS (Western blot); type: cell-based; details: 3 h pretreatment (Table 3 amounts), LPS 1 μg/ml 24 h
How it was run: as §1

[9] = target: T1, rePON1 (PON1, paraoxonase 1) (Homo sapiens, UniProt P27169); experiment: Prevention of inhibition of PON1 activity by oxidized linolenic acid (TBBL substrate); type: biochemical
T1 construct: purchased Thermo Corp. RP-75678
How it was run: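 Recombinant PON1 preincubated 30 min at room temperature with compound (30 μM) in 50 mM Tris-HCl/1 mM CaCl2, then exposed to oxidized linolenic acid for 2 h. Activity read with TBBL and DTNB at 420 nm, 37 °C, every 2 min for 1 h, expressed relative to uninhibited PON1.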

T1 sequence (P27169 whole entry): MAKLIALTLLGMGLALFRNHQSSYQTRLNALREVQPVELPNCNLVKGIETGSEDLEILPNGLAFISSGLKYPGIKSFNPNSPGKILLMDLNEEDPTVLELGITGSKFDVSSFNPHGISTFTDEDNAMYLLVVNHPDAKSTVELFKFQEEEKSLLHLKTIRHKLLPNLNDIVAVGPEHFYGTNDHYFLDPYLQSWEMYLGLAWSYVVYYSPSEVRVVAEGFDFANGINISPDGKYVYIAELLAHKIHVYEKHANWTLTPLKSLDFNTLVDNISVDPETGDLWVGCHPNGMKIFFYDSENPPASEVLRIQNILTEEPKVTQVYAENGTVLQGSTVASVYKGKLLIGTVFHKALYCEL

CCCOc1ccc([C@@H]2COc3c(ccc4c3CCC(C)(C)O4)C2)c(O)c1 [Formula IV-2, (R)-2-(8,8-dimethyl-2,3,4,8,9,10-hexahydropyrano[2,3-f]chromen-3-yl)-5-propoxyphenol] was tested, and the “production of NO” value (BV2 cells [1]) was “concentration-dependently decreased”, the “production of PGE2” value (BV2 cells [1]) was “concentration-dependently decreased” and the “production of NO” value (RAW264.7 cells [2]) was “concentration-dependently decreased”. The “production of PGE2” value (RAW264.7 cells [2]) was “concentration-dependently decreased”, the “mRNA expression level of IL-1β” value (BV2 cells [3]) was “concentration-dependently decreased” and the “mRNA expression level of IL-6” value (BV2 cells [3]) was “concentration-dependently decreased”. The “mRNA expression level of TNF-α” value (BV2 cells [3]) was “concentration-dependently decreased”, the “mRNA expression level of IL-1β” value (RAW264.7 cells [4]) was “concentration-dependently decreased” and the “mRNA expression level of IL-6” value (RAW264.7 cells [4]) was “concentration-dependently decreased”. For the same compound, the “mRNA expression level of TNF-α” value (RAW264.7 cells [4]) was “concentration-dependently decreased”, the “level of transcription of NF-κB protein into the nucleus, p50” value (BV2 cells [5]) was “concentration-dependently decreased” and the “level of transcription of NF-κB protein into the nucleus, p65” value (BV2 cells [5]) was “concentration-dependently decreased”. For the same compound, the “level of transcription of NF-κB protein into the nucleus, p50” value (RAW264.7 cells [6]) was “concentration-dependently decreased”, the “level of transcription of NF-κB protein into the nucleus, p65” value (RAW264.7 cells [6]) was “concentration-dependently decreased” and the “expression level of COX-2” value (BV2 cells [7]) was “concentration-dependently decreased”. For the same compound, the “expression level of iNOS” value (BV2 cells [7]) was “concentration-dependently decreased”, the “expression level of COX-2” value (RAW264.7 cells [8]) was “concentration-dependently decreased” and the “expression level of iNOS” value (RAW264.7 cells [8]) was “concentration-dependently decreased”. For the same compound, the activity at 30 µM ([9]; 30 μM compound with rePON1 30 min, then oxidized linolenic acid 2 h, TBBL substrate, normal control 100, negative control 73.64) was 93.5%, the “extent to which inhibition of rePON1 activity was prevented, compared with glabridin” value ([9]; compound 30 μM vs glabridin 30 μM, result in words) was “greater” and the “inhibition of rePON1 activity by oxidized linolenic acid” value ([9]; compound 30 μM, result in words) was “prevented”.
